Laboratory results as given in US7030150B2, “Benzimidazole compounds and antiviral uses thereof” (Trimeris, Inc., priority 2001, dated 2006).

These molecules were tested on uninfected Hep2 cells.

Row | Compound | CC50 [µM]
1 | c1ccc(CC2=NCCN2Cc2nc3ccccc3n2Cc2nc3ccccc3[nH]2)cc1 [compound 204] | ≥ 100
2 | CCOCCCNCc1nc2ccccc2n1Cc1nc2ccccc2[nH]1 [compound 159] | ≥ 100
3 | CN(Cc1ccco1)Cc1nc2ccccc2n1Cc1nc2ccccc2[nH]1 [compound 85] | ≥ 100
4 | COc1cccc(CNCc2nc3ccccc3n2Cc2nc3ccccc3[nH]2)c1OC [compound 181] | ≥ 100
5 | COc1ccc(N(C)Cc2nc3ccccc3n2Cc2nc3ccccc3[nH]2)cc1 [compound 110] | ≥ 100
6 | N=C(N)NCc1nc2ccccc2n1Cc1nc2ccccc2[nH]1 [compound 104] | ≥ 100
7 | CN1CCC(N(C)Cc2nc3ccccc3n2Cc2nc3ccccc3[nH]2)CC1 [compound 80] | 58
8 | c1ccc(CN2CCN(Cc3nc4ccccc4n3Cc3nc4ccccc4[nH]3)CC2)cc1 [compound 231] | 15
9 | c1ccc2[nH]c(Cn3c(CNCCCN4CCCC4)nc4ccccc43)nc2c1 [compound 147] | ≥ 100
10 | ClCc1nc2ccccc2n1Cc1nc2ccccc2[nH]1 [compound 1] | 50
11 | O=C1C(=O)N(Cc2nc3ccccc3n2Cc2nc3ccccc3[nH]2)c2ccc(F)cc21 [compound 237] | 65
12 | CN(Cc1nc2ccccc2n1Cc1nc2ccccc2[nH]1)C(c1ccccc1)c1ccccc1 [compound 111] | ≥ 100
13 | CCN(CC)CCCC(C)NCc1nc2ccccc2n1Cc1nc2ccccc2[nH]1 (centres unmarked) [compound 148] | ≥ 100
14 | C1=CCN(Cc2nc3ccccc3n2Cc2nc3ccccc3[nH]2)CC1 [compound 202] | ≥ 100
15 | CC(C)NCc1nc2ccccc2n1Cc1nc2ccccc2[nH]1 [compound 152] | ≥ 100
16 | CN(C)CCCNCc1nc2ccccc2n1Cc1nc2ccccc2[nH]1 [compound 174] | ≥ 100
17 | CS(=O)(=O)c1ccc(Cn2c(CN3CCCCC3)nc3ccccc32)cc1 [compound 60] | ≥ 100
18 | CC(C)N(Cc1nc2ccccc2n1Cc1nc2ccccc2[nH]1)CC(O)c1ccc(O)c(O)c1 (centres unmarked) [compound 107] | ≥ 100
19 | CC(C)N(Cc1nc2ccccc2n1Cc1c2ccccc2nc2ccccc12)C1CCCCC1 [compound 10] | ≥ 100
20 | COCCCNCc1nc2ccccc2n1Cc1nc2ccccc2[nH]1 [compound 116] | ≥ 100
21 | FC(F)(F)c1ccc(N2CCN(Cc3nc4ccccc4n3Cc3nc4ccccc4[nH]3)CC2)nc1 [compound 196] | 78
22 | FC(F)(F)Oc1ccc(CNCc2nc3ccccc3n2Cc2nc3ccccc3[nH]2)cc1 [compound 115] | ≥ 100
23 | CCNCc1nc2ccccc2n1Cc1nc2ccccc2[nH]1 [compound 123] | ≥ 100

Row | Compound | CC50 [µM]
24 | Fc1cc(F)cc(CNCc2nc3ccccc3n2Cc2nc3ccccc3[nH]2)c1 [compound 173] | 6.4
25 | CCCN(Cc1nc2ccccc2n1Cc1ccc(S(C)(=O)=O)cc1)CC1CC1 [compound 26] | 97
26 | CCOCCCNCc1nc2ccccc2n1Cc1nc2ccccc2[nH]1 [compound 182] | ≥ 100
27 | CCCN(Cc1nc2ccccc2n1Cc1csc(C)n1)CC1CC1 [compound 21] | 50
28 | COc1ccc(CCNCc2nc3ccccc3n2Cc2nc3ccccc3[nH]2)cc1 [compound 120] | ≥ 100
29 | C#CCN(C)Cc1nc2ccccc2n1Cc1nc2ccccc2[nH]1 [compound 90] | ≥ 100
30 | O=C1c2ccccc2C(=O)N1Cc1nc2ccccc2n1Cc1nc2ccccc2[nH]1 [compound 226] | 50
31 | FC(F)(F)Oc1cccc(CNCc2nc3ccccc3n2Cc2nc3ccccc3[nH]2)c1 [compound 127] | ≥ 100
32 | CCCN(Cc1nc2ccccc2n1Cc1ccc2ccccc2n1)CC1CC1 [compound 20] | 50
33 | CC1CC(C)CN(Cc2nc3ccccc3n2Cc2nc3ccccc3[nH]2)C1 (centres unmarked) [compound 205] | ≥ 100
34 | c1ccc(CN2CCC(NCc3nc4ccccc4n3Cc3nc4ccccc4[nH]3)C2)cc1 (centres unmarked) [compound 149] | 39
35 | CN1CCN(CCCNCc2nc3ccccc3n2Cc2nc3ccccc3[nH]2)CC1 [compound 112] | ≥ 100
36 | CCN(Cc1ccncc1)Cc1nc2ccccc2n1Cc1nc2ccccc2[nH]1 [compound 99] | ≥ 100
37 | Fc1cc2c(c(Cn3c(CN4CCCCC4)nc4ccccc43)c1)OCOC2 [compound 59] | ≥ 100
38 | c1ccc2[nH]c(Cn3c(CNC4CCCCC4)nc4ccccc43)nc2c1 [compound 165] | ≥ 100
39 | c1csc(CNCc2nc3ccccc3n2Cc2nc3ccccc3[nH]2)c1 [compound 142] | ≥ 100
40 | OCC1CCCCN1Cc1nc2ccccc2n1Cc1nc2ccccc2[nH]1 (centres unmarked) [compound 210] | 8
41 | c1ccc2[nH]c(Cn3c(CN4CCC5CCCCC5C4)nc4ccccc43)nc2c1 (centres unmarked) [compound 214] | ≥ 100
42 | COc1ccc(CNCc2nc3ccccc3n2Cc2nc3ccccc3[nH]2)cc1 [compound 146] | ≥ 100
43 | c1ccc2c(NCc3nc4ccccc4n3Cc3nc4ccccc4[nH]3)cccc2c1 [compound 180] | 14
44 | c1ccc2c(Cn3c(CN4CCCCC4)nc4ccccc43)c3ccccc3nc2c1 [compound 72] | ≥ 100
45 | Cc1nc(Cn2c(CN(Cc3ccccc3)C(C)C)nc3ccccc32)cs1 [compound 40] | 50
46 | CCCCCCN(C)Cc1nc2ccccc2n1Cc1nc2ccccc2[nH]1 [compound 88] | ≥ 100

Row | Compound | CC50 [µM]
47 | CCCCCN(C)Cc1nc2ccccc2n1Cc1nc2ccccc2[nH]1 [compound 91] | 80
48 | C1=CCN(Cc2nc3ccccc3n2Cc2nc3ccccc3[nH]2)C1 [compound 201] | 19
49 | CSc1ccc(Cn2c(CN(C(C)C)C3CCCCC3)nc3ccccc32)cc1 [compound 14] | 30
50 | O=C1C(=O)N(Cc2nc3ccccc3n2Cc2nc3ccccc3[nH]2)c2ccc([N+](=O)[O-])cc21 [compound 236] | ≥ 100
51 | COC(=O)CN(C)Cc1nc2ccccc2n1Cc1nc2ccccc2[nH]1 [compound 95] | ≥ 100
52 | CCN(CC)CCNCc1nc2ccccc2n1Cc1nc2ccccc2[nH]1 [compound 162] | ≥ 100
53 | c1ccc2[nH]c(Cn3c(CNCCCN4CCOCC4)nc4ccccc43)nc2c1 [compound 124] | ≥ 100
54 | c1ccc2[nH]c(Cn3c(CNCc4ccc5c(c4)OCO5)nc4ccccc43)nc2c1 [compound 169] | ≥ 100
55 | COc1ccccc1CCNCc1nc2ccccc2n1Cc1nc2ccccc2[nH]1 [compound 175] | ≥ 100
56 | c1ccc2[nH]c(Cn3c(CNC4CC5CCC4C5)nc4ccccc43)nc2c1 (centres unmarked) [compound 119] | ≥ 100
57 | CCCN(Cc1nc2ccccc2n1Cc1cccc(Oc2ccccc2)c1)CC1CC1 [compound 25] | ≥ 101
58 | CSc1ccc(Cn2c(CN3CCCCC3)nc3ccccc32)cc1 [compound 76] | 11
59 | c1ccc2[nH]c(Cn3c(CN4CCCCCCC4)nc4ccccc43)nc2c1 [compound 233] | ≥ 100
60 | CNCc1nc2ccccc2n1Cc1nc2ccccc2[nH]1 [compound 164] | ≥ 100
61 | c1ccc2[nH]c(Cn3c(CNCCCn4ccnc4)nc4ccccc43)nc2c1 [compound 136] | ≥ 100
62 | OCCC1CCCCN1Cc1nc2ccccc2n1Cc1nc2ccccc2[nH]1 (centres unmarked) [compound 213] | ≥ 100
63 | COc1cccc(CCNCc2nc3ccccc3n2Cc2nc3ccccc3[nH]2)c1 [compound 135] | ≥ 100
64 | c1ccc2[nH]c(Cn3c(CNC4CCCC4)nc4ccccc43)nc2c1 [compound 177] | ≥ 100
65 | CCCCN(CC)Cc1nc2ccccc2n1Cc1nc2ccccc2[nH]1 [compound 92] | 68
66 | O=C1C(=O)N(Cc2nc3ccccc3n2Cc2nc3ccccc3[nH]2)c2ccc(Br)cc21 [compound 235] | ≥ 100
67 | CCOC(=O)C1CCN(Cc2nc3ccccc3n2Cc2nc3ccccc3[nH]2)CC1 [compound 203] | ≥ 100
68 | Fc1ccc(CCNCc2nc3ccccc3n2Cc2nc3ccccc3[nH]2)cc1 [compound 167] | ≥ 100
69 | OCCOCCN1CCN(Cc2nc3ccccc3n2Cc2nc3ccccc3[nH]2)CC1 [compound 216] | 9

Row | Compound | CC50 [µM]
70 | CC1C=CC(C)N1Cc1nc2ccccc2n1Cc1nc2ccccc2[nH]1 (centres unmarked) [compound 207] | ≥ 100
71 | CCCCN(CCCC)CCCNCc1nc2ccccc2n1Cc1nc2ccccc2[nH]1 [compound 100] | 9.3
72 | Clc1ccc(CNCc2nc3ccccc3n2Cc2nc3ccccc3[nH]2)cc1Cl [compound 138] | 6.5
73 | COc1cc2c(cc1OC)C(CC#N)N(Cc1nc3ccccc3n1Cc1nc3ccccc3[nH]1)CC2 (centres unmarked) [compound 223] | ≥ 100
74 | CN(C)CCN(C)Cc1nc2ccccc2n1Cc1nc2ccccc2[nH]1 [compound 84] | ≥ 100
75 | Cc1ccc(N2CCN(Cc3nc4ccccc4n3Cc3nc4ccccc4[nH]3)CC2)c(C)c1 [compound 227] | ≥ 100
76 | Fc1cccc(F)c1CNCc1nc2ccccc2n1Cc1nc2ccccc2[nH]1 [compound 161] | ≥ 100
77 | C=C(C)CN(CC)Cc1nc2ccccc2n1Cc1nc2ccccc2[nH]1 [compound 89] | ≥ 100
78 | O=C(OCc1ccccc1)N1CCCCN(Cc2nc3ccccc3n2Cc2nc3ccccc3[nH]2)CC1 [compound 232] | ≥ 100
79 | Clc1ccc(CCNCc2nc3ccccc3n2Cc2nc3ccccc3[nH]2)cc1 [compound 163] | 16
80 | CSc1ccc(Cn2c(CN3CCCCC3)nc3ccccc32)cc1 [compound 61] | 20
81 | c1ccc2[nH]c(Cn3c(CN4CCCC4)nc4ccccc43)nc2c1 [compound 199] | ≥ 100
82 | c1ccc2[nH]c(Cn3c(CN4CCC5CCCCC5C4)nc4ccccc43)nc2c1 (centres unmarked) [compound 234] | 24
83 | OCC1CCCN1Cc1nc2ccccc2n1Cc1nc2ccccc2[nH]1 (centres unmarked) [compound 209] | ≥ 100
84 | CC(C)OCCCNCc1nc2ccccc2n1Cc1nc2ccccc2[nH]1 [compound 129] | ≥ 100
85 | Oc1ccc(N2CCN(Cc3nc4ccccc4n3Cc3nc4ccccc4[nH]3)CC2)cc1 [compound 220] | ≥ 100
86 | Clc1ccccc1CNCc1nc2ccccc2n1Cc1nc2ccccc2[nH]1 [compound 150] | ≥ 100
87 | Clc1cccc(CNCc2nc3ccccc3n2Cc2nc3ccccc3[nH]2)c1 [compound 157] | ≥ 100
88 | CCCN(Cc1nc2ccccc2n1Cc1cc(F)cc2c1OCOC2)CC1CC1 [compound 24] | 82
89 | CN(Cc1nc2ccccc2n1Cc1nc2ccccc2[nH]1)CC(O)c1ccc(O)cc1 (centres unmarked) [compound 97] | 77
